Assay results from PMC7011974, “Benzimidazole derivatives endowed with potent antileishmanial activity” (Journal of Enzyme Inhibition and Medicinal Chemistry, 2017).
Like-named read-outs stand apart in the source and are kept apart here.

Legend:
[1] = tested on: human microvascular endothelial cell line (HMEC-1); test: Cytotoxicity on HMEC-1 cells (MTT); assay type: cell-based; settings: for IC50: cytotoxicity, HMEC-1 cells, MTT; for SI L. infantum (IC50 HMEC-1/IC50 L. infantum) / SI L. tropica (IC50 HMEC-1/IC50 L. tropica): selectivity index
[2] = tested on: L. tropica promastigotes; test: Antileishmanial activity on L. tropica promastigotes (MTT); assay type: cell-based, Leishmania tropica; settings: for IC50: 72 h, read-out: IC50 (µM) L. tropica
[3] = tested on: L. infantum promastigotes; test: Antileishmanial activity on L. infantum promastigotes (MTT); assay type: cell-based, Leishmania infantum; settings: for IC50: Leishmania infantum, 72 h, read-out: IC50 (µM) L. infantum
[4] = Leishmania tropica, promastigotes, MTT, starred values mean of two experiments
[5] = promastigotes of L. tropica and/or L. infantum
[6] = fold potency versus miltefosine
[7] = percent of amphotericin B potency, calculated for each experiment
[8] = promastigotes, MTT, starred values mean of two experiments

Row | SMILES | melting point | IC50 [2, 4] | IC50 ([3]; promastigotes, MTT) | IC50 amph. B ×100/IC50 compd., L. infantum [3, 7] | IC50 amph. B ×100/IC50 compd., L. tropica [2, 7] | IC50 ([1]; Homo sapiens) | Ratio IC50 miltef./IC50 compd., L. infantum [3, 6] | Ratio IC50 miltef./IC50 compd., L. tropica [2, 6] | SI L. infantum (IC50 HMEC-1/IC50 L. infantum) [1] | SI L. tropica (IC50 HMEC-1/IC50 L. tropica) [1] | also measured
1 | CCN(CC)CCCn1c(Cc2ccc(OC)cc2)nc2cc(C(C)=O)ccc21 [Compound 25] | – | – | – | – | – | – | – | – | – | – | IC50 [3]: > 51 µM; Antileishmanial activity in words [2]: inactive; IC50 ([2]; Leishmania tropica): > 51 µM
2 | CCCCCCCCCCCc1nc2ccccc2[nH]1 [Compound 1, 2-Undecyl-1 H-benzimidazole] | 108.1 to 109.3 °C | > 16.2 µM | – | – | – | 51 ± 7.5 µM | – | – | – | – | Antileishmanial activity in words [2, 5]: inactive
3 | CCCCCCCCCCCCCCCc1nc2ccccc2[nH]1 [Compound 6, 2-Pentadecyl-1 H-benzimidazole] | 88.8 to 94.2 °C | 5.05 ± 0.01 µM | 10.1 ± 4.9 µM | 0.93 | 1.6 | > 37 µM | 3.1 | 8.6 | – | – | –
4 | CCCCCCCCCCCCCCCc1n(C)c2ccc([N+](=O)[O-])cc2[n+]1C.[I-] [Compound 10, 1,3-Dimethyl-5-nitro-2-pentadecyl-1 H-benzimidazol-3-ium iodide] | 154 to 156 °C | 1.4 ± 0.58 µM | 0.96 ± 0.17 µM | 12.3 | 7.35 | 2.11 ± 0.45 µM | 32.6 | 30.9 | 2.20 | 1.51 | –
5 | CCCCCCCCCCCCCCCc1n(C)c2ccc(C(F)(F)F)cc2[n+]1C.[I-] [Compound 9, 1,3-Dimethyl-2-pentadecyl-5-trifluoromethyl-1 H-benzimidazol-3-ium iodide] | 116 to 118 °C | 0.87 ± 0.16 µM | 1.32 ± 0.3 µM | 8.9 | 11.9 | 1.86 ± 0.34 µM | 23.7 | 49.7 | 1.41 | 2.14 | –
6 | CCCCCCCCCCCCCCCc1nc2ccccc2n1C[c-]1cccc1.[Fe+2].c1cc[cH-]c1 [Compound 16, 1-(Ferrocenylmethyl)-2-pentadecyl-1 H-benzimidazole] | – | – | – | – | – | – | – | – | – | – | IC50 [1]: > 35 µM; Antileishmanial activity in words [2, 5]: inactive; IC50 [2, 8]: > 35 µM
7 | CCCCCCCCCCCCCCCc1n(C)c2cc(Cl)c(Cl)cc2[n+]1C.[I-] [Compound 11, 5,6-Dichloro-1,3-dimethyl-2-pentadecyl-1 H-benzimidazol-3-ium iodide] | 200 to 203 °C | 1.06 ± 0.54 µM | 0.84 ± 0.13 µM | 14.1 | 9.1 | 1.68 ± 0.75 µM | 37.2 | 40.8 | 2.00 | 1.58 | –
8 | CCCCCCCCCCCc1n(C)c2ccccc2[n+]1C.[I-] [Compound 3, 1,3-Dimethyl-2-undecyl-1 H-benzimidazol-3-ium iodide] | 157.3 to 161.3 °C | 1.68 µM | 0.28 ± 0.07 µM | 55.7 | 4.9 | 2.64 ± 0.49 µM | 111.6 | 25.8 | 9.43 | 1.57 | –
9 | CCCCCCCCCCCc1nc2ccccc2n1C [Compound 2, 1-Methyl-2-undecyl-1H-benzimidazole] | 40.8 to 43.4 °C | – | – | – | – | – | – | – | – | – | –
10 | CCCCCCCCCCCCCCCc1nc2ccccc2n1C [Compound 7, 1-Methyl-2-pentadecyl-1H-benzimidazole] | 64.2 to 65.6 °C | > 58 µM | > 58 µM | – | – | – | – | – | – | – | Antileishmanial activity in words [2, 5]: inactive
11 | CCCCCCCCCCCCCCCc1n(C[c-]2cccc2)c2ccccc2[n+]1C.[Fe+2].[I-].c1cc[cH-]c1 [Compound 17, 1-(Ferrocenylmethyl)-3-methyl-2-pentadecyl-1 H-benzimidazol-3-ium iodide] | – | – | – | – | 3.34 | – | – | 12.2 | – | 0.35 | IC50 [1]: 1.26 ± 0.24 µM; IC50 [2, 8]: 3.56 ± 0.84 µM
12 | CCCCCCCCCCCCCCCc1n(C)c2ccccc2[n+]1CCC.[I-] [Compound 12, 1-Methyl-2-pentadecyl-3-propyl-1H-benzimidazol-3-ium iodide] | 144.7 to 147.4 °C | 0.51 µM | 0.42 ± 0.14 µM | 37.1 | 16.1 | 0.73 ± 0.37 µM | 74.4 | 84.8 | 1.74 | 1.43 | –
13 | CCCCCCCCCCCc1n(Cc2ccccc2)c2ccccc2[n+]1Cc1ccccc1.[Cl-] [Compound 5, 1,3-Dibenzyl-2-undecyl-1H-benzimidazol-3-ium chloride] | 223.3 to 225.3 °C | 0.78 µM | 0.61 ± 0.05 µM | 25.6 | 10.5 | 1.38 ± 0.17 µM | 51.3 | 55.5 | 2.26 | 1.77 | –
14 | COc1ccc(Cc2nc3cc(C(C)=O)ccc3n2C[C@@H]2CCCN3CCCC[C@H]23)cc1 [Compound 31] | – | – | – | – | – | – | – | – | – | – | IC50 amph. B ×100/IC50 compd., L. infantum [3]: 0.73; Ratio IC50 miltef./IC50 compd., L. infantum [3]: 1.1; IC50 [3]: 28.5 ± 4.47 µM; IC50 amph. B ×100/IC50 compd., L. tropica [2]: 0.74; Ratio IC50 miltef./IC50 compd., L. tropica [2]: 1.8; IC50 ([2]; Leishmania tropica): 23.9 ± 7.78 µM
15 | CCCCCCCCCCCCCCCc1nc2ccccc2n1Cc1ccccc1 [Compound 13, 1-Benzyl-2-pentadecyl-1H-benzimidazole] | 60.7 to 61.8 °C | > 11.9 µM | > 11.9 µM | – | – | > 47 µM | – | – | – | – | Antileishmanial activity in words [2, 5]: inactive

Continued, in another order:

Row | melting point | IC50 [2, 4] | IC50 ([3]; promastigotes, MTT) | IC50 amph. B ×100/IC50 compd., L. infantum [3, 7] | IC50 amph. B ×100/IC50 compd., L. tropica [2, 7] | SMILES | IC50 ([1]; Homo sapiens) | Ratio IC50 miltef./IC50 compd., L. infantum [3, 6] | Ratio IC50 miltef./IC50 compd., L. tropica [2, 6] | SI L. infantum (IC50 HMEC-1/IC50 L. infantum) [1] | SI L. tropica (IC50 HMEC-1/IC50 L. tropica) [1] | also measured
16 | 192.2 to 192.9 °C | > 73 µM | – | – | – | CCCC(CCC)c1n(C)c2ccccc2[n+]1C.[I-] [Compound 20, 1,3-Dimethyl-2-(heptan-4-yl)-1 H-benzimidazol-3-ium iodide] | > 73 µM | – | – | – | – | Antileishmanial activity in words [2, 5]: inactive
17 | – | 23.7 ± 8.54 µM | 28.5 ± 8.66 µM | 0.73 | 0.75 | CC(=O)c1ccc2c(c1)nc(Cc1ccccc1)n2C[C@@H]1CCCN2CCCC[C@H]12 [Compound 29] | – | 1.1 | 1.8 | – | – | –
18 | 224.7 to 225.8 °C | 11.1 ± 2.73 µM | > 39.6 µM | – | 1.07 | CCCC(CCC)c1nc2ccccc2[nH]1 [Compound 18, 2-(Heptan-4-yl)-1 H-benzimidazole] | 65.1 ± 12.2 µM | – | 3.9 | – | 5.87 | –
19 | 165 to 169 °C | > 27 µM | > 27 µM | – | – | C[n+]1c(-c2ccc(Cl)cc2)n(C[C@@H]2CCC[N+]3(C)CCCC[C@H]23)c2ccc(C(F)(F)F)cc21 (stereo partly drawn) [Compound 39, 2-(4-Chlorophenyl)-3-methyl-1-{[5-methylammonio-(1 S,9aR)-octahydroquinolizin-1-yl]-methyl}-5-trifluoromethyl-1 H-benzimidazol-3-ium diiodide] | – | – | – | – | – | Antileishmanial activity in words [2, 5]: inactive
20 | 215.7 to 219.3 °C | 0.49 µM | 0.64 ± 0.01 µM | 24.4 | 16.7 | CCCCCCCCCCCCCCCc1n(C)c2ccccc2[n+]1Cc1ccccc1.[Cl-] [Compound 14, 3-Benzyl-1-methyl-2-pentadecyl-1 H-benzimidazol-3-ium chloride] | 0.91 ± 0.19 µM | 48.8 | 88.3 | 1.42 | 1.86 | –
21 | – | 30 ± 10.3 µM | – | – | 0.40 | CCCC(CCC)c1nc2ccccc2n1C [Compound 19, 2-(Heptan-4-yl)-1-methyl-1 H-benzimidazole] | > 74 µM | – | 1.4 | – | >2.43 | –
22 | 214.9 to 216.3 °C | 1.61 ± 0.15 µM | 3.26 ± 0.8 µM | 2.9 | 5.1 | CCCCCCCCCCCCCCCc1n(Cc2ccccc2)c2ccccc2[n+]1Cc1ccccc1.[Cl-] [Compound 15, 1,3-Dibenzyl-2-pentadecyl-1 H-benzimidazol-3-ium chloride] | 0.94 ± 0.17 µM | 9.6 | 26.9 | 0.29 | 0.60 | –
23 | 60 °C | 33.9 ± 12.6 µM | 16.7 ± 7.07 µM | 0.70 | 0.30 | Cn1c(Cc2ccc(Cl)cc2)[n+](C)c2cc(C(F)(F)F)ccc21.[I-] [Compound 22, 2-(4-Chlorobenzyl)-1,3-dimethyl-5-trifluoromethyl-1 H-benzimidazol-3-ium iodide] | – | 1.9 | 1.3 | – | – | –
24 | 94 to 98 °C | > 50 µM | > 50 µM | – | – | Cn1c(Cc2ccc(Cl)cc2)[n+](C)c2ccccc21.[I-] [Compound 21, 2-(4-Chlorobenzyl)-1,3-dimethyl-1 H-benzimidazol-3-ium iodide] | – | – | – | – | – | Antileishmanial activity in words [2, 5]: inactive
